Experiments:
[1] = Diindole levels in tissues of WT and Nr1i3-/- mice; assay type: in vivo
Protocol: 12–15 week-old C57BL/6 J mice were obtained from Jackson Laboratories and were housed on a standard 12 h light/dark cycle. Nr1i3^−/− mice with C57BL/6 J background were obtained from David Moore’s lab (PMID: 11057673) at Baylor College of Medicine, and used at 13–26 weeks of age. Wild-type male, female and Nr1i3^−/− male mice were used in this study, due to known sex-specific CAR activities. Mice were housed in groups of 2–5 mice per cage on a standard 12 h light/dark cycle and fed with rodent chow diet (Inotiv, Teklad rodent diet 2918). Temperature was maintained at 21 °C with a range of 21–24 °C and humidity at 16–51%. National Institute of Health guidelines for the care and use of laboratory animals were followed with all experiments performed as directed by the Institutional Animal Care and Use Committee at the University of Illinois, Urbana-Champaign (UIUC, IACUC protocol: 22183). Mice were acclimatized to the UIUC mouse facility for 2 weeks prior to experiments. DIM and DIE were dissolved in 5% DMSO in corn oil and injected intraperitoneally at 25 mg/kg once daily for three days. After 4 h of the third injection, mice were sacrificed to collect serum, livers and intestines. […] Relative gene expression was calculated by the delta Ct method and normalized to 36b4 levels as loading controls. qPCR primers for gene expression analysis are listed in Supplementary Table 3.

[2] = tested on: cyp2b6, cyp3a4, sult2a1 mRNA in PHH; assay: RT-qPCR of CAR target genes in primary human hepatocytes; assay type: cell-based; conditions: two donors, 48 h
Protocol: PHH culture, RNA extraction and gene expression analyses were performed as described previously. Primer sequences for cyp2b6, cyp3a4, sult2a1, and glyceraldehyde-3-phosphate dehydrogenase (gapdh) are shown in Supplementary Table 3.

[3] = target: T1, His-tagged CAR-LBD-SRC1 fusion protein (Homo sapiens, UniProt Q14994); assay: Isothermal titration calorimetry (ITC); assay type: binding; conditions: 25 °C; ligand 50 μM; mean of two independent experiments
T1 construct: The human CAR LBD (Lys^108 – Ser^352) was amplified by PCR from cDNA; HIS6; made in house; host or cells: E. coli BL21(DE3)
T1 sequence (Q14994 108-352): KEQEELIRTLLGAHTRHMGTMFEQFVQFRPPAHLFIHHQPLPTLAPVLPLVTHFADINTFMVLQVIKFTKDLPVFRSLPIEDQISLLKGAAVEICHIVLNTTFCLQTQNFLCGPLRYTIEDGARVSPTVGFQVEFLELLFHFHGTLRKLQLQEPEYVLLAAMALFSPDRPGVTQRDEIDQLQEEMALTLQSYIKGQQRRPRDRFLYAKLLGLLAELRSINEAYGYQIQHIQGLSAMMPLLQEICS
Protocol: Purified hCAR-SRC1 protein (200–250 µM) was dissolved in 120 μL of PBS and supplemented with 0.5% DMSO. All experiments were performed in a MicroCal Auto-iTC200 instrument (Malvern Panalytical, Marlvern, United Kingdom) at 25 °C. Ligands were used at a concentration of 50 μM. Protein was titrated into cells in a series of 19 injections (injection 1 = 0.4 µL, injection 2–19 = 2 µL) 180 s apart. Control experiments performed by injection of the potein into […] yielded insignificant heats of dilution, and heat responses were subtracted. Integrated heat effects were analyzed using Microcal Origin 7 software (Malvern Instruments).

hCAR = target: T2, hCAR (Homo sapiens, UniProt Q14994); assay: hCAR nuclear translocation in primary human hepatocytes (Ad/EYFP-hCAR); assay type: cell-based; conditions: PHHs from two individuals; 10 µM, 8 h
T2 construct: expressed in transfected cells; host or cells: primary human hepatocytes infected with Ad/EYFP-hCAR
T2 sequence (Q14994 1-352): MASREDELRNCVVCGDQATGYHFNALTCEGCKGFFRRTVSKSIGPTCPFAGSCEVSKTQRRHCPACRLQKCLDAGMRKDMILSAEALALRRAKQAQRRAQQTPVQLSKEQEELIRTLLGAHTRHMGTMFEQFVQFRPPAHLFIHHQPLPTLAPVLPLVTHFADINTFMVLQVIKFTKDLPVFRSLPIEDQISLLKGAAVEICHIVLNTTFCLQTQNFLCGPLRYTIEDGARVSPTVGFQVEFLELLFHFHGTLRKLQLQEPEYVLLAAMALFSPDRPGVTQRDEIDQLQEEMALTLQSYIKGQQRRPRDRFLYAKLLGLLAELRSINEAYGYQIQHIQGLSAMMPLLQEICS
Protocol: 24 h after seeding at 0.25 × 10^6 cells/well in 24-well biocoat plate, PHHs were infected with 2 µL of adenoviral enhanced yellow fluorescent protein-tagged hCAR (Ad/EYFP-hCAR) followed by treatment with 0.1% DMSO, phenobarbital (PB) (1 mM), DIM (10 µM) or DIE (10 µM) for 8 h. Cells were washed with phosphate-buffered saline and fixed for 30 min with 4% formaldehyde at room temperature and then stained with 4,6-diamidine-2-phenylindole dihydrochloride for 30 min after washing three times with phosphate-buffered saline. The subcellular localization of hCAR and nuclei were visualized using a Nikon Eclipse Ti-E inverted fluorescence microscope (Nikon, Edgewood, NY) in YFP/FITC and DAPI fluorescence channels. Compounds were added to the plate in triplicate and results analyzed as detailed below with z-factors calculated as previously described.

hCAR1+A = target: T3, hCAR1+A (Homo sapiens, UniProt Q14994, INS274A); assay: HepG2 CYP2B6-2.2 kb reporter with hCAR1+A; assay type: cell-based; conditions: 1, 5 and 10 µM, 24 h
T3 construct: expressed in transfected cells; host or cells: HepG2 (ATCC, HB-8065)
Excerpt: Activities of both firefly and renilla luciferases were detected using a Dual-Luciferase Kit (Promega).

T3 sequence (Q14994 with tags, fused parts or gaps isoform Q14994-2 INS270A): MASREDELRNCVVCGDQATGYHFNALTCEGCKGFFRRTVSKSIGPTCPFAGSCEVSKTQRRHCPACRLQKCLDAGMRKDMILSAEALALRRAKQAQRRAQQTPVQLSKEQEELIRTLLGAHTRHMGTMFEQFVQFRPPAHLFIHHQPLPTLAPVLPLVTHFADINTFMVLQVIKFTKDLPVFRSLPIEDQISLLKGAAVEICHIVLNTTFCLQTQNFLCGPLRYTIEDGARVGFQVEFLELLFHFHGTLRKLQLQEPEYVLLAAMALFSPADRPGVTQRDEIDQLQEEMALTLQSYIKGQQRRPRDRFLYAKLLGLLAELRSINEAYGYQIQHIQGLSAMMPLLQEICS
T3 sequence (P19793 whole entry partner): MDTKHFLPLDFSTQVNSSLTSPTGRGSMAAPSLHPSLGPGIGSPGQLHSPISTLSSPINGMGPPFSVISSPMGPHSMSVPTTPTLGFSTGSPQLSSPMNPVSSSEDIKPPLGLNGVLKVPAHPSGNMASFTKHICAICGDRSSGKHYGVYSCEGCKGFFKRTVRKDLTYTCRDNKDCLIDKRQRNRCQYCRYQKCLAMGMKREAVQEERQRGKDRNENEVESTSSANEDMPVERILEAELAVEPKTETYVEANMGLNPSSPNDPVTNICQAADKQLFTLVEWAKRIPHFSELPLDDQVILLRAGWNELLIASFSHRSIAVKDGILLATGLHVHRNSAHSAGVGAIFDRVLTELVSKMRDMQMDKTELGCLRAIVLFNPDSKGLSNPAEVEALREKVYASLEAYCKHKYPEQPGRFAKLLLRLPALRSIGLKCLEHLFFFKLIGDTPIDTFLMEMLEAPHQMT

Compound | compound levels in tissues of Nr1i3-/- versus WT mice ([1]; duodenum, jejunum, ileum, liver, male mice treated with diindoles) | cyp2b6 mRNA expression [2] | cyp3a4 mRNA expression (joint CAR/PXR target gene) [2] | sult2a1 mRNA expression (non-target gene) [2] | Kd [3] [nM] | hCAR nuclear relocation (hCAR) | hCAR1+A activity (CYP2B6 reporter) (hCAR1+A) | compound levels in tissues of Nr1i3-/- versus WT mice ([1]; mouse, in vivo)
CC(c1c[nH]c2ccccc12)c1c[nH]c2ccccc12 [DIE, 3,3’-diindolylethane] | increased dramatically | selectively upregulated | more variable | no effects | 250 | efficiently promote hCAR nuclear relocation | significantly boost hCAR1+A activity | 
c1ccc2c(Cc3c[nH]c4ccccc34)c[nH]c2c1 [DIM, diindolylmethane] |  | selectively upregulated | more variable | no effects | 3900 | efficiently promote hCAR nuclear relocation | significantly boost hCAR1+A activity | increased dramatically

— paper PMC10960024, “Diindoles produced from commensal microbiota metabolites function as endogenous CAR/Nr1i3 ligands” (Nature Communications, 2024)
